Consider 20 compounds from ChEMBL document CHEMBL5236658, “Trienomycin A-simplified analogs: Synthesis and anti-neuroinflammatory activity” (Bioorg Med Chem Lett, 2023).

In series [1] the test system is BV-2. The experiment in a line: Antineuroinflammatory activity in mouse BV-2 cells assessed as inhibition of LPS-induced NO production at 10 uM by Griess assay. Format: functional. More on the design: scale not given: the % may be the effect or the level left. On the technique in general: Griess reagent forms a coloured azo dye with nitrite.
Series [2] is described as follows: Cytotoxicity against mouse BV-2 cells assessed as cell viability at 20 uM. Format: toxicity, cell-based. The conditions noted are these: read-out: Activity.
Series [3] has as its system BV-2. In words: Antineuroinflammatory activity in mouse BV-2 cells assessed as inhibition of LPS-induced NO production by Griess assay. Format: functional, cell-based.
A further series concerns PC-12. The experiment in a line: Neuroprotective activity against H2O2-induced rat PC-12 cells injury assessed as cell viability at 10 uM preincubated for 4 hrs followed by H2O2 stimulation and measured after 24 hrs by MTT assay (reference value: 56%). Format: functional. The settings on record: time 28 hrs, read-out: Activity. (In general: Formazan colour is commonly taken as a measure of viable cells.)

Series [4] in a line: Neurotoxicity against rat PC-12 cells at 20 uM incubated for 24 hrs by MTT assay. It counts as toxicity, cell-based. The settings on record: pc-12, 24 h.

SMILES strings stand for the structures.

Turning to `O=c1c(O)c(-c2ccc(O)c(O)c2)oc2cc(O)cc(O)c12` [QUERCETIN], in the series with BV-2 [1], the Activity was 63.2%. In series [2], the viability at 20 µM worked out at 98.7%.

Regarding `C[C@H](NC(=O)C1CCCCC1)C(=O)OC1CCCCC1`, the Activity in the series on BV-2 [1] was 41.8%; in series [4] it was “Non-Toxic”. In addition, in series [2], the viability at 20 µM is 91.5%. In addition, in the series with BV-2 [3], the EC50 was determined as 17.3 µM. In addition, the viability at 10 µM in the series with PC-12 turned out to be 67%.

For `CO[C@H]1/C=C/C=C/C=C/C[C@H](OC(=O)[C@@H](C)NC(=O)C2CCCCC2)[C@H](C)[C@@H](O)/C(C)=C\CCc2cc(O)cc(c2)NC(=O)C1` [TRIENOMYCIN A], the EC50 in the series on BV-2 [3] came out at 0.02 µM.

On to `C[C@@H](NC(=O)C1CCCCC1)C(=O)OC1CC/C=C\CCC1` (some centres undefined), for which, in the series on BV-2 [1], the Activity worked out at 28.4%. Further, the viability at 20 µM in series [2] amounted to 112%.

As to `C[C@@H](NC(=O)C1CCCCC1)C(=O)OCc1ccccc1`, the Activity in the series on BV-2 [1] is listed as 47.2%; in series [4] it was “Non-Toxic”. The viability at 20 µM in series [2] came to 93%. The EC50 in the series on BV-2 [3] turned out to be 12.4 µM. Further, in the series on PC-12, the viability at 10 µM was 80%.

Take `CO[C@H]1/C=C/C=C/C=C/C[C@H](O)[C@H](C)[C@@H](O)/C(C)=C\CCc2cc(O)cc(c2)NC(=O)C1`: the EC50 in the series on BV-2 [3] came to 13 µM.

Consider `C[C@@H](NC(=O)C1CCCCC1)C(=O)OC1CCC1`, for which the Activity in the series on BV-2 [1] is listed as 8%. Further, in series [2], the viability at 20 µM stood at 106%.

As to `C[C@H](NC(=O)C1CCCCC1)C(=O)OCc1ccccc1`, the Activity is given as 31.8% in the series with BV-2 [1] and “Non-Toxic” in series [4]. Besides, the viability at 20 µM in series [2] is 90%. The EC50 in the series on BV-2 [3] worked out at 23.6 µM.

`C[C@@H](NC(=O)C1CCCCC1)C(=O)OC1CCCCCCCCCCC1`: in the series with BV-2 [1], the Activity came out at 19%. Also, the viability at 20 µM in series [2] came out at 105%.

For `C[C@@H](NC(=O)C1CCCCC1)C(=O)OC1CC=CC1`, the Activity in the series on BV-2 [1] is given as 17.7%. The viability at 20 µM in series [2] worked out at 91.5%.

Consider `C[C@@H](NC(=O)C1CCCCC1)C(=O)OC1CC1`, for which, in the series on BV-2 [1], the Activity turned out to be 9.7%. Moreover, the viability at 20 µM in series [2] turned out to be 97.6%.

In the case of `C[C@@H](NC(=O)C1CCCCC1)C(=O)OCC1CCCCC1`, the values for the Activity (with BV-2 [1]; in series [4]) were 31.1% and “Non-Toxic”, respectively. In addition, the viability at 20 µM in series [2] was 98.3%. The EC50 in the series with BV-2 [3] stood at 24.1 µM.

Turning to `C[C@@H](NC(=O)C1CCCCC1)C(=O)OC1CCCCCCCCCCCCCC1`, the Activity in the series with BV-2 [1] was found to be 12.5%. For the same compound, the viability at 20 µM in series [2] was determined as 109%.

Take `C[C@@H](NC(=O)C1CCCCC1)C(=O)OC1CCCCCC1`: the Activity in the series on BV-2 [1] amounted to 18%. Moreover, the viability at 20 µM in series [2] is 96.1%.

Consider `C[C@@H](NC(=O)C1CCCCC1)C(=O)OC1CCCCCCC1`, for which the Activity in the series on BV-2 [1] amounted to 8.3%. In addition, in series [2], the viability at 20 µM amounted to 84%.

Take `C[C@@H](NC(=O)C1CCCCC1)C(=O)OC1CCCC1`: the results for the Activity (in the series on BV-2 [1]; in series [4]) were 36% and “Non-Toxic”, respectively. The viability at 20 µM in series [2] worked out at 86.2%.

Turning to `C[C@@H](NC(=O)C1CCCCC1)C(=O)OC1C=CCCC1` (some centres undefined), in the series with BV-2 [1], the Activity was 14.5%. Also, the viability at 20 µM in series [2] was determined as 85.4%.

As for `C[C@H](NC(=O)C1CCCCC1)C(=O)OCC1CCCCC1`, the Activity in the series with BV-2 [1] is 52.9%; in series [4], “Non-Toxic”. Moreover, the viability at 20 µM in series [2] is 92.7%. In the series on BV-2 [3], the EC50 was determined as 8.9 µM. Besides, the viability at 10 µM in the series on PC-12 is 76%.

With `C[C@@H](NC(=O)C1CCCCC1)C(=O)OC1CCCCC1`, the Activity is given as 34.6% in the series with BV-2 [1] and “Non-Toxic” in series [4]. In series [2], the viability at 20 µM came to 97.5%. Besides, the EC50 in the series with BV-2 [3] came out at 22 µM.

Regarding `C[C@@H](NC(=O)C1CCCCC1)C(=O)O`, the Activity in the series with BV-2 [1] is recorded as 6.72%. For the same compound, the viability at 20 µM in series [2] worked out at 101%.

In general, EC50 refers to the concentration that produces a half-maximal response.
